Assay results published in patent US9090535B2, “Hydroxylated tricyclic compounds” (Nektar Therapeutics, priority 2010, dated 2015).
Counter-ions that a name gives are not always drawn. Like-named read-outs stand apart in the source and are kept apart here.

Key:
[1] = test system: sodium channels (sodium current INa) in rat dorsal root ganglion (DRG) cells; assay: Sodium channel assay, whole-cell patch clamp of sodium current in isolated DRG cells; format: cell-based
From the text: The effect of compounds disclosed herein on sodium channels may be evaluated in vitro to determine their blocking properties using the whole-cell patch clamp method in isolated cardiac (human atrial myocytes) and neuronal (rat dorsal root ganglion) cells. The example below refers to a sodium channel assay using neuronal cells.
Electrophysiologic patch clamp recordings of the sodium current in isolated rat dorsal root ganglion (DRG) cells were used to measure the sodium channel blocking properties of certain compounds disclosed herein. DRG cells were isolated according to the method of Blair and Bean (J Neurosci, 22: pp. 10277-10290, 2002) and plated on treated glass coverslips. For measuring the sodium current, cells were perfused with an external solution that consists of (in mmol/L): 115 TMA chloride, 10 NaCl, 5 CsCl, 1.8 CaCl2, 1.2 MgCl2, 10 HEPES, 11 dextrose, pH adjusted to 7.4 with TMA-OH. The chemical composition of the internal solution was (in mmol/L): 115 CsF, 20 CsCl, 10 NaF, 10 HEPES, 5 EGTA; pH adjusted to 7.2 with CsOH. Currents were measured using the whole-cell variant of the patch clamp method (Crumb & Clarkson, Biophysical Journal, 57(3): 589, 1990). An Axopatch 1-B amplifier (Axon Instruments, Foster City, Calif.) was used for whole-cell voltage clamping. Creation of voltage clamp pulses and data acquisition were controlled by a PC running pClamp software (version 9.2, Axon Instruments). INa was elicited by a 40 ms pulse to −20 mV from a holding potential of −65 mV. Pacing rates of 0.1 and 3 Hz were examined. […]. Four concentrations of each test compound were added to the cell in a cumulative manner starting with the lowest test concentration. Each cell served as its own control and data are presented as % reduction of current amplitude achieved in the presence of drug. A nonlinear curve fitting routine was utilized to fit a three-parameter Hill equation to the results using MicroCal Origin, version 6.0 software. The equation was: […]

[2] = molecular target: T1, cloned human hERG channel (Homo sapiens, UniProt Q12809); assay: In vitro effect on hERG channels, whole-cell patch clamp in HEK cells; format: cell-based; conditions: 37 °C, read-out: IhERG, 0.1 HZ, IC50
T1 construct: expressed in transfected cells; host or cells: HEK cells
T1 sequence (Q12809 whole entry): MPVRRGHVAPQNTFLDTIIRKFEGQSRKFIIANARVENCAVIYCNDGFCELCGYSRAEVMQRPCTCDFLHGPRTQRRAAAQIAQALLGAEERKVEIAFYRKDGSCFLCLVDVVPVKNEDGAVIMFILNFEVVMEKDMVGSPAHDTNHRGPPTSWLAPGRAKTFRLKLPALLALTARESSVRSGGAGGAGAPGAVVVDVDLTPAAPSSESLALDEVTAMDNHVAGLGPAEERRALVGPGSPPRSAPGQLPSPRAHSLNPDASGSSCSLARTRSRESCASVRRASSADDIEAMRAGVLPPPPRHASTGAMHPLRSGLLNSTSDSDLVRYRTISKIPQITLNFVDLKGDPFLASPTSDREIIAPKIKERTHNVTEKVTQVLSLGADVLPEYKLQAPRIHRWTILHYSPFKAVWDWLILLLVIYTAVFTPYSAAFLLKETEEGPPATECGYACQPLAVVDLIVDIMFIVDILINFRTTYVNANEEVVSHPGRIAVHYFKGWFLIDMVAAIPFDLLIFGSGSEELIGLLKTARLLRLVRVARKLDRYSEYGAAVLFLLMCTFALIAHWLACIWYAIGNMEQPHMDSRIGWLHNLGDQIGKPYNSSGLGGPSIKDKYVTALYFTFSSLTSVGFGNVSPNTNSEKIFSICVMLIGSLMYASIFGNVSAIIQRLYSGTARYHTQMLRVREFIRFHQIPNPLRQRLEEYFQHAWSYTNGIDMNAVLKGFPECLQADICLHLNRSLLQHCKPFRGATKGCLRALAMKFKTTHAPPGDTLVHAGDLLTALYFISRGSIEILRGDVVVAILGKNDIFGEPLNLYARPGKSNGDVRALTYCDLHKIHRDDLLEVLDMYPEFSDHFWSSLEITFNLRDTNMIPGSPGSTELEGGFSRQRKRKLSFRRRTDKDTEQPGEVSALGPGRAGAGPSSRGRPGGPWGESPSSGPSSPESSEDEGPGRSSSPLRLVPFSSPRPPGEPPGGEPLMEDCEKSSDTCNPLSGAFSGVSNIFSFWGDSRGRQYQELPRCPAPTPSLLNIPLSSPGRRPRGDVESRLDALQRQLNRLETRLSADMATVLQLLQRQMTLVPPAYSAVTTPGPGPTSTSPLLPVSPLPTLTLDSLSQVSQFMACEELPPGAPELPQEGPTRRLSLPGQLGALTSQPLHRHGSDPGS
Method: Electrophysiological measurements of hERG current were made in vitro to assess the hERG block produced by certain compounds disclosed herein. hERG currents were measured in HEK cells expressing the cloned human hERG channel using the whole-cell variant of the patch clamp method. Experiments were performed at 37±1° C. An Axopatch 1-B amplifier (Axon Instruments, Foster City, Calif.) was used for whole-cell voltage clamping. Creation of voltage clamp pulses and data acquisition was controlled by a PC running pClamp software (version 9.2, Axon Instruments). After rupture of the cell membrane (entering whole-cell mode), current kinetics and amplitudes were allowed to stabilize for 3-5 minutes as the cell was dialyzed with internal solution and paced at 0.1 Hz. Cells were depolarized to +10 mV for 500 ms from a holding potential of −75 mV and peak hERG current was measured as the maximum outward deflection of the tail current elicited upon return to −40 mV (pacing rate=0.1 Hz). Four concentrations of each test compound were added to the cell in a cumulative manner starting with the lowest test concentration. Each cell served as its own control and data are presented as % reduction of current amplitude achieved in the presence of drug.
A nonlinear curve fitting routine was utilized to fit a three-parameter Hill equation to the results using MicroCal Origin, version 6.0 software. The equation was: […]

[3] = molecular target: T2, human norepinephrine transporter (hNET) (Homo sapiens, UniProt P23975); assay: Binding affinity to human norepinephrine transporter (hNET), [3H]Nisoxetine displacement; conditions: membranes from MDCK cells expressing hNET, [3H]Nisoxetine 2 nM, read-out: NET binding, Ki
T2 construct: expressed in transfected cells; host or cells: MDCK cells
T2 sequence (P23975 whole entry): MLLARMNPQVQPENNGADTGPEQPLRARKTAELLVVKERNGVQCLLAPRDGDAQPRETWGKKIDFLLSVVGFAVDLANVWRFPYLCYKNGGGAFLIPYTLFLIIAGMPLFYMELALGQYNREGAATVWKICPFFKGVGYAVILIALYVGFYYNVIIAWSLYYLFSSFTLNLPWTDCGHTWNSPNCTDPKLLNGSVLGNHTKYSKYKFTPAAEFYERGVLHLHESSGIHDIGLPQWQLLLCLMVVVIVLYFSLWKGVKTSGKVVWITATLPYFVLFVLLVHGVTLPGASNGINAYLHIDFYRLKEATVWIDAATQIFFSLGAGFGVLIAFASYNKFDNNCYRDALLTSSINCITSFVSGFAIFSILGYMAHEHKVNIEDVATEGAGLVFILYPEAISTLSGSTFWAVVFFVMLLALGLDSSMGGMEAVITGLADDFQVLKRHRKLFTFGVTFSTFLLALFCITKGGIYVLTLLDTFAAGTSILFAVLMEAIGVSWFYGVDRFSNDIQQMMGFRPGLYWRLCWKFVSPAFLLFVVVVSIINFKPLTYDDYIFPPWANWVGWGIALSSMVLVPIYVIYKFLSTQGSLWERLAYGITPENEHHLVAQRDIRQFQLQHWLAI
Method: The binding affinities of certain compounds disclosed herein to the hNET were measured using competitive radioligand displacement assays in membranes prepared from MDCK cells that express the human norepinephrine transporter. Competition binding experiments were conducted by incubating hNET membranes with [^3H] Nisoxetine (2 nM), in the presence of increasing concentrations of test compounds. Incubations were carried out at 4° C. for 60 minutes in buffer containing 50 mM Tris HCl, 120 mM NaCl and 5 mM KCl (pH 7.4). The binding reaction was terminated by rapid filtration, membranes were washed and membrane-bound radioactivity was measured using a scintillation counter. Non-specific binding was measured in the presence of excess (10 μM) clomipramine as the unlabelled ligand and this value was subtracted from the total binding to yield the specific binding at each test compound concentration.
IC50 values were obtained from non-linear regression analysis of concentration-versus specific binding plots. Ki values were calculated from the IC50 values using the Cheng Prusoff correction and experimentally determined […] values for the radioligand under these assay conditions.

Row | Compound | IC50 ([1]; Table 1, pacing rate 3 Hz) [µM] | IC50 ([2]; Table 1, pacing rate 0.1 Hz) [µM] | Ki ([3]; Table 1) [µM] | IC50 ([1]; Table 2, pacing rate 3 Hz) [µM] | IC50 ([2]; Table 2, pacing rate 0.1 Hz) [µM] | Ki ([3]; Table 2) [µM]
1 | COCCOCCOCCOCCOc1ccc2c(c1)CCc1ccccc1/C2=C\CCN(C)C [5-(3-Dimethylamino-propylidene)-10,11-dihydro-5H-dibenzo[a,d]cyclohept-E-en-2-OmPEG4 hydrochloride salt] | 6.8 | 5.8 | 60.8 | – | – | –
2 | CN(C)CC/C=C1\c2ccccc2C[C@@H](O)c2ccccc21 [(R)-5-(3-dimethylamino-propylidene)-10,11-dihydro-5H-dibenzo[a,d]cyclohept-E-en-10-ol, reference compound] | – | – | – | 6.2 | 18 | 2.53
3 | COCCOCCOCCOCCO[C@H]1Cc2ccccc2/C(=C\CCN(C)C)c2ccccc21 [(S)-5-(3-dimethylamino-propylidene)-10-OmPEG4-10,11-dihydro-5H-dibenzo[a,d]cyclohept-E-ene trifluoroacetate salt] | – | – | – | 39.4 | 24.8 | 12.6
4 | COCCOCCOCCOCCOCCOCCO[C@H]1Cc2ccccc2/C(=C\CCN(C)C)c2ccccc21 [(S)-5-(3-dimethylamino-propylidene)-10-OmPEG6-10,11-dihydro-5H-dibenzo[a,d]cyclohept-E-ene trifluoroacetate salt] | – | – | – | 8.5 | 36 | 14.2
